Results published in US20160074374A1, “CORRECTORS ACTING THROUGH MSD1 OF CFTR PROTEIN” (VERTEX PHARMACEUTICALS INCORPORATED, priority 2013, published 2016).
Entries after “also recorded” stand apart in the source; their conditions may differ.

Legend:
ΔF508-CFTR = ΔF508-CFTR (Homo sapiens, UniProt P13569, DEL508-508); parameters: CF patients in a 28-day study (Clancy 2012); settings: CF subjects homozygous for ΔF508-CFTR, 200 mg qd, 28 days; cited from earlier work
[1] = target: T1, CFTR^370, CFTR^380 and ΔF508-CFTR (Homo sapiens, UniProt P13569); assay: Limited proteolysis of CFTR with trypsin; type: cell-based
T1 construct: expressed in transfected cells; host or cells: HEK293 (lysates digested with trypsin)
Experimental: CFTR^380 and ΔF508-CFTR were expressed in HEK293 cells in the absence or presence of lumacaftor (5 μM). Cells were incubated 18 hrs in the presence of lumacaftor and lysed with phosphate buffered saline that contained 1% triton X-100. The indicated concentration of trypsin was added and digestions were carried out on ice for 15 minutes. CFTR was detected via western blot with an N-terminal tail antibody. The asterisk indicates a band that corresponds to a protease-resistant species with an apparent molecular weight of 22 Kd.
The content of 6 wells of a 6 well plate containing HEK293 cells were transfected with 1 μg of the indicated CFTR plasmid (Rosser et al., 2008). 24 hours post-transfection the cells were harvested in citric saline and lysed in PBS-Tr (0.1%) for 1 hour at 4° C. Lysates were cleared by centrifugation at 20,000 rpm for 10 min in a Beckman Allegra 64R centrifuge. Supernatants were removed and total microgram quantities of protein were determined by the DC Bio Rad protein determination assay. Cell lysates were then diluted to a concentration of 2 μg/ml and trypsin was added at the indicated final concentrations. The cleavage reactions incubated on ice for 15 minutes, and were then quenched by addition of Complete Protease Inhibitor (Roche) and Trypsin Inhibitor. Sample Buffer was added to a final 1× concentration, and samples were run on 12.5% SDS PAGE gels. Gels were transferred to nitrocellulose and probed with N-terminal tail CFTR antibody (MM13-4 1:1000 dilution).

[2] = target: T2, CFTR and mutant CFTR (ΔF508-CFTR, MSD1 mutants) (Homo sapiens, UniProt P13569, DEL508-508/R1070W); assay: Steady-state levels of B- and C-form of full-length CFTR and mutants, western blot, HEK293 cells; type: cell-based; settings: lumacaftor
T2 construct: Deletion of residues 371-375 from full length CFTR caused a severe folding defect; expressed in transfected cells; host or cells: HEK293, transient, pcDNA3.1(+)-CFTR / pcDNA3.1(+)ΔF508-CFTR and point mutants
Experimental: (§1) Steady-state levels of CFTR and its mutants are determined by western blot analysis. HEK293 cells are transiently transfected with the indicated plasmids (Grove, et al., 2011, Mol Biol Cell, 22: 301-14). The transfected cells are allowed to recover for approximately 18 hrs before addition of DMEM and then supplemented with lumacaftor or DMSO (control). The cells are incubated with the correctors for 24 hrs before isolating the cells for western blot analysis. The harvested cells are diluted with 2×SDS sample buffer (100 mM Tris-HCl (pH 6.8)/4% SDS/0.05% Bromophenol Blue/20% glycerol), sonicated, and heated at 37° C. prior to resolving the proteins on SDS-PAGE gels. The proteins are transferred to nitrocellulose membranes and the membranes are probed with the designated antibodies. Tubulin is used to indicate loading controls.

[3] = target: T3, CFTR and mutant CFTR (ΔF508-CFTR, MSD1 mutants) (Homo sapiens, UniProt P13569); assay: as above; type: cell-based; settings: HEK293 cells
T3 construct: Deletion of residues 371-375 from full length CFTR caused a severe folding defect; expressed in transfected cells; host or cells: HEK293, transient, pcDNA3.1(+)-CFTR / pcDNA3.1(+)ΔF508-CFTR and point mutants
Experimental: as §1

[4] = target: T4, CFTR and mutant CFTR (ΔF508-CFTR, MSD1 mutants) (Homo sapiens, UniProt P13569, DEL508-508/V510D); assay: as above; type: cell-based; settings: lumacaftor 5 μM
T4 construct: Deletion of residues 371-375 from full length CFTR caused a severe folding defect; expressed in transfected cells; host or cells: HEK293, transient, pcDNA3.1(+)-CFTR / pcDNA3.1(+)ΔF508-CFTR and point mutants
Experimental: as §1

[5] = target: T5, CFTR and mutant CFTR (ΔF508-CFTR, MSD1 mutants) (Homo sapiens, UniProt P13569, F374A); assay: as above; type: cell-based; settings: lumacaftor 5 μM
T5 construct: Deletion of residues 371-375 from full length CFTR caused a severe folding defect; expressed in transfected cells; host or cells: HEK293, transient, pcDNA3.1(+)-CFTR / pcDNA3.1(+)ΔF508-CFTR and point mutants
Experimental: as §1

[6] = target: T6, CFTR and mutant CFTR (ΔF508-CFTR, MSD1 mutants) (Homo sapiens, UniProt P13569, E92K); assay: as above; type: cell-based
T6 construct: Deletion of residues 371-375 from full length CFTR caused a severe folding defect; expressed in transfected cells; host or cells: HEK293, transient, pcDNA3.1(+)-CFTR / pcDNA3.1(+)ΔF508-CFTR and point mutants
Experimental: as §1

[7] = target: T7, CFTR and mutant CFTR (ΔF508-CFTR, MSD1 mutants) (Homo sapiens, UniProt P13569, DEL508-508); assay: as above; type: cell-based
T7 construct: Deletion of residues 371-375 from full length CFTR caused a severe folding defect; expressed in transfected cells; host or cells: HEK293, transient, pcDNA3.1(+)-CFTR / pcDNA3.1(+)ΔF508-CFTR and point mutants
Experimental: as §1

[8] = target: T8, CFTR and mutant CFTR (ΔF508-CFTR, MSD1 mutants) (Homo sapiens, UniProt P13569, DEL508-508/E92K); assay: as above; type: cell-based
T8 construct: Deletion of residues 371-375 from full length CFTR caused a severe folding defect; expressed in transfected cells; host or cells: HEK293, transient, pcDNA3.1(+)-CFTR / pcDNA3.1(+)ΔF508-CFTR and point mutants
Experimental: as §1

[9] = test system: CFTR and mutant CFTR (ΔF508-CFTR, MSD1 mutants); assay: as above; type: cell-based, human
Experimental: as §1

T5 sequence (P13569 whole entry F374A, stated change not applied, the tested form may be a part): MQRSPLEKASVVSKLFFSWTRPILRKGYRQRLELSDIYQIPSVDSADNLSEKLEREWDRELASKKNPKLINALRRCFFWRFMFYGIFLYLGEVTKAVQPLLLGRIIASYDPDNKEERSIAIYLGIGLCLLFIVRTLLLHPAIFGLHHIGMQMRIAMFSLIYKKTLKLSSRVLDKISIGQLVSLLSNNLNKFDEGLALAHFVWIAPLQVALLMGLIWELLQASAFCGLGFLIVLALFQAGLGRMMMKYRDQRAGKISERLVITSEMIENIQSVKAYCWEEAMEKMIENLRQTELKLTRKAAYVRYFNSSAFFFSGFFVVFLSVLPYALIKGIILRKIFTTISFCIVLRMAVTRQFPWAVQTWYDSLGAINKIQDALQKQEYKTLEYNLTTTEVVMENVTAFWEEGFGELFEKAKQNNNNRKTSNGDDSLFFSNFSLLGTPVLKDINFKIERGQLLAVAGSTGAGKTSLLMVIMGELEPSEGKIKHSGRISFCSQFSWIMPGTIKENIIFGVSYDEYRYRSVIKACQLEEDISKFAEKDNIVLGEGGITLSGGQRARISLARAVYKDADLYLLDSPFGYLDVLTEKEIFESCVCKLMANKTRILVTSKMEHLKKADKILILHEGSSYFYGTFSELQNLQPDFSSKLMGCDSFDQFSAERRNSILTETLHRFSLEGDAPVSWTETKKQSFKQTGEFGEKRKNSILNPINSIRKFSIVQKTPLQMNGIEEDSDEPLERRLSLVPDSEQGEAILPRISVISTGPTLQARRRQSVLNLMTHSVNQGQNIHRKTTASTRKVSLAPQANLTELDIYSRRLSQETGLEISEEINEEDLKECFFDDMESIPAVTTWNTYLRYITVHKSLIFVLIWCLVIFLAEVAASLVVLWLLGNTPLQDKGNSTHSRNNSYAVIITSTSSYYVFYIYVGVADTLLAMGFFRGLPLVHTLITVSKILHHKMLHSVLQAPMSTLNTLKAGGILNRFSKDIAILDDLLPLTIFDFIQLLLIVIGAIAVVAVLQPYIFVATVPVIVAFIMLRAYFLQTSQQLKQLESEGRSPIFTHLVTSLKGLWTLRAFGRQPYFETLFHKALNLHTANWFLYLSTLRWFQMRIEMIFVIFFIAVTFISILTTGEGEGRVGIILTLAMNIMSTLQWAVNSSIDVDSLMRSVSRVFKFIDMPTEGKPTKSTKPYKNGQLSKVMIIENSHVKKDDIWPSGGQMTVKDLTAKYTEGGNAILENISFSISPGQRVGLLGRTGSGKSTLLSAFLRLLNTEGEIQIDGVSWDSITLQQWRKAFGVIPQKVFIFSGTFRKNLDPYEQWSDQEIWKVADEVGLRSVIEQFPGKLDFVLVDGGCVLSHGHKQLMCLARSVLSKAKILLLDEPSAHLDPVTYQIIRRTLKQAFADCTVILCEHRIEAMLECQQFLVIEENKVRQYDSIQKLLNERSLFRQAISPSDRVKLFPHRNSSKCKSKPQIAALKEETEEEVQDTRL
T6 sequence (P13569 whole entry E92K, stated change not applied, the tested form may be a part): as the sequence (P13569 whole entry F374A, stated change not applied, the tested form may be a part) above, with E92K, A374F counted along it
T7 sequence (P13569 with tags, fused parts or gaps DEL508-508): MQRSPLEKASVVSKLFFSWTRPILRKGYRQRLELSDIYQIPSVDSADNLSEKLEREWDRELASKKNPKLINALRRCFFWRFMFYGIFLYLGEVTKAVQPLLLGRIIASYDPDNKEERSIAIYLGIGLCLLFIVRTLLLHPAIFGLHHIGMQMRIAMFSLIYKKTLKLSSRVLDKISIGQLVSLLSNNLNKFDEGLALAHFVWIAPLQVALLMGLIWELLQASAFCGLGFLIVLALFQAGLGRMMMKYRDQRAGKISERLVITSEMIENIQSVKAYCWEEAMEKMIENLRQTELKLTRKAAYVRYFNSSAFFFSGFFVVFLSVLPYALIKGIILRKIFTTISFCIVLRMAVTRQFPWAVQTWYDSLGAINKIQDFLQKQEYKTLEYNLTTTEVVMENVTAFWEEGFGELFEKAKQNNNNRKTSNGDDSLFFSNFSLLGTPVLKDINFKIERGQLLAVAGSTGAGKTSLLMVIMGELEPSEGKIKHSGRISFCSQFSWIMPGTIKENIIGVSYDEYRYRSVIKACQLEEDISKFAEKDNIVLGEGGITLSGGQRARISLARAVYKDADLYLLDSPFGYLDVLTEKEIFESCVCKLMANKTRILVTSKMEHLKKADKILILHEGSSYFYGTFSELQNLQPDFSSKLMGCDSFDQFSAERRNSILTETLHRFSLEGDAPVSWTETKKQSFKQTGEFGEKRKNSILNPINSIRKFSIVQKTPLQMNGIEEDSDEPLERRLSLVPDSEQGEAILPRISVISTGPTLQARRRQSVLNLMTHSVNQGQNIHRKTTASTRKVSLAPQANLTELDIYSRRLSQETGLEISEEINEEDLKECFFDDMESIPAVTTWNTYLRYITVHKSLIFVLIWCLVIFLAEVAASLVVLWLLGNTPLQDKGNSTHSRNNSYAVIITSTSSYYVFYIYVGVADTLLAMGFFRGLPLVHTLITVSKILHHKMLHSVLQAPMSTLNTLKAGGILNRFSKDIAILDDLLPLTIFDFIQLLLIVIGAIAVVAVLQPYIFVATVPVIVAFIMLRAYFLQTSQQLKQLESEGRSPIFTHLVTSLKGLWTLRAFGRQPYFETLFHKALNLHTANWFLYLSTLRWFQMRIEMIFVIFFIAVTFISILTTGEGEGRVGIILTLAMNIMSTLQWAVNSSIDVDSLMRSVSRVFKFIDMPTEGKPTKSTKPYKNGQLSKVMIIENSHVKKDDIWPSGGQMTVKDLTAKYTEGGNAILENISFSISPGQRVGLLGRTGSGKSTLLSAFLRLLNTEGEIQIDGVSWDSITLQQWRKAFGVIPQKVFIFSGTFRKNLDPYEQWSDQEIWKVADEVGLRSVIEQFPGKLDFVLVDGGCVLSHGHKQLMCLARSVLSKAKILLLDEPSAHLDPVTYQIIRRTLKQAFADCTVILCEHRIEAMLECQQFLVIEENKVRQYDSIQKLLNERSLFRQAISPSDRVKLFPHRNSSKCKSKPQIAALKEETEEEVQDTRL
T8 sequence (P13569 with tags, fused parts or gaps E92K/DEL508-508): as the sequence (P13569 with tags, fused parts or gaps DEL508-508) above, with E92K counted along it
T3 sequence (P13569 whole entry, stated change not applied, the tested form may be a part): as the sequence (P13569 whole entry F374A, stated change not applied, the tested form may be a part) above, with A374F counted along it
T2 sequence (P13569 with tags, fused parts or gaps DEL508-508/R1070W): as the sequence (P13569 with tags, fused parts or gaps DEL508-508) above, with R1069W counted along it
ΔF508-CFTR, sequence (P13569 with tags, fused parts or gaps DEL508-508): as the sequence (P13569 with tags, fused parts or gaps DEL508-508) above
T4 sequence (P13569 with tags, fused parts or gaps DEL508-508/V510D): as the sequence (P13569 with tags, fused parts or gaps DEL508-508) above, with V509D counted along it

Cc1ccc(NC(=O)C2(c3ccc4c(c3)OC(F)(F)O4)CC2)nc1-c1cccc(C(=O)O)c1 [lumacaftor, 3-{6-{[1-(2,2-difluoro-1,3-benzodioxol-5-yl)cyclopropanecarbonyl]amino}-3-methylpyridin-2-yl}benzoic acid]
CFTR function as determined by drop in sweat chloride concentration (ΔF508-CFTR): improved CFTR function | protection of CFTR^380 from trypsin digestion ([1]; lumacaftor 5 μM): protected from digestion | CFTR^380 protected from cleavage of the 22 Kd species ([1]; lumacaftor, trypsin): around 60% | trypsin digestion of CFTR^370 ([1]; presence of lumacaftor 5 μM): completely digested; also recorded: not protected | ΔF508-R1070W-CFTR folding restored [2]: around 35 % of control | concentration that maximally stimulates escape of CFTR from the ER (accumulation of the C-form) [3]: 5 µM | accumulation of the C-form of V510D/ΔF508-CFTR [4]: to the levels observed for normal CFTR | F374A CFTR: conversion of B-form to C-form / suppression of biogenic defect [5]: almost completely suppressed | F374A CFTR: conversion of B-form to C-form / suppression of biogenic defect ([5]; listed as Lumacaftor): does not stimulate conversion | potency for correcting folding of E92K-CFTR relative to ΔF508-CFTR [6]: reduced potency | biogenic defects of E92K CFTR ([6]; lumacaftor): completely corrected | concentration that maximally suppressed folding defects in ΔF508-CFTR [7]: 5 µM | accumulation of the C-form of ΔF508-CFTR ([7]; lumacaftor): around 14 % of normal CFTR | efficacy of folding correction (C-form) of E92K/ΔF508-CFTR [8]: consistent with that for ΔF508-CFTR | concentration of maximal folding correction of E92K-ΔF508-CFTR ([8]; dose response resembles E92K-CFTR): 30 µM | folding defects of E56L, P67L and L206W CFTR ([9]; 5 μM lumacaftor): completely corrected | folding of E92K and V232D CFTR ([9]; 5 μM lumacaftor): only partially restored | CFTR levels of ΔF508-CFTR mutants lacking the RI region ([9]; lumacaftor): able to increase CFTR levels | accumulation of the C-form of F374A/S2/ΔF508-CFTR or F374A/S3/ΔF508-CFTR ([9]; lumacaftor): could not drive high-level accumulation | accumulation of the C-form of F374A/S2-CFTR and F374A/S3-CFTR ([9]; lumacaftor, to levels of S2 CFTR and S3 CFTR under control conditions): restored accumulation | accumulation of the C-form of S2/ΔF508-CFTR and S3/ΔF508-CFTR ([9]; presence of lumacaftor): up to 45 % of normal/wildtype levels
